Values after ≈ are worked out from the molar mass of the structure shown. Starred links: 1 amine or outer side, 2 acyl side, 3 side chain; linkers in the order of their positions; H or OH if unused. Positions of bridges follow the written chain, without caps; N, C: chain ends. Non-standard residues stand in square brackets, D forms with d. Residues, ends and D or L forms follow the SMILES beside them. Chains are numbered I, II in the order given. No end group written: not given here. εLys = N[C@@H](CCCCN[*:1])C(=O)[*:2]

In one series the test system is Bacillus subtilis. Type of series: cell-based. Conditions: 24 h. The procedure:
(§1) A panel of four bacteria, including two Gram-negative (P. aeruginosa, E. coli) and two Gram-positive (S. aureus, B. subtilis) bacterial strains, was used to test the antibacterial properties of the peptides. The bacteria P. aeruginosa, E. coli, and S. aureus belong to the ESKAPE group of pathogens, which are potential multidrug resistant strains that are majorly involved in various nosocomial infections.
(§2) The antimicrobial activity of the peptides was determined against two Gram-negative (Pseudomonas aeruginosa PA01 and the Escherichia coli K12 parental type) and two Gram-positive (Staphylococcus aureus and Bacillus subtilis) bacteria. The minimal inhibitory concentration (MIC) assays were performed as reported by Wiegand et al.,[50] using the broth microdilution method in 96-well round-bottom microplates. Briefly, bacterial cells in mid log phase were cultured in Mueller-Hinton broth (MHB) and then diluted to 10^6 CFU/mL. Aliquots of 50 μL of bacterial solution were added to 50 μL of MHB medium containing 2-fold serially diluted peptides with concentrations ranging from 1.56 to 50 μM. Plates were incubated at 37 °C for 24 h, and MICs were defined as the lowest concentration of peptide that prevented detectable turbidity. Cultures without peptides and uninoculated MHB were employed as positive and negative controls, respectively. The bacterial growth inhibition was evaluated by measuring the absorbance at 600 nm using a microplate autoreader (SynersyMx, Biotek).

The subject of series [1] is Escherichia coli K12 parental type. Type of series: cell-based. Conditions: K12, 24 h. Here is the method: as §1, §2
Series [2] relates to Pseudomonas aeruginosa PA01. Type of series: cell-based. Conditions: 24 h. Here is the method: as §1, §2
The subject of series [3] is human monocytic (THP-1) cells. Type of series: cell-based. Conditions: 100 µM. Here is the method:
Peptide-induced cytotoxicity was assessed against murine macrophage (RAW 264.7) cells and human monocytic (THP-1) cells using the benzenesulfonic acid hydrate and N-methyl dibenzopyrazine methyl sulfate (XTT) dye reduction assay. […] This may in part be due to low hydrophobicity (Table 1), leading to less bacterial membrane alteration.
Figure 3 Cytotoxicity of peptides (1.56–100 μM) on human monocytic (THP-1) cells. Cell viability was analyzed and quantified by measuring the absorption at 450 nm. The data is presented as mean percent viability. All data represent mean ± SD from three independent experiments. One-way analysis of variance was used to analyze the data.
The cytotoxicity of the peptides toward the murine macrophage cells (RAW 264.7) and human monocytic (THP-1) cells was assayed using the colorimetric 2,3-bis(2-methoxy-4-nitro-5-sulfophenyl)-2H-tetrazolium-5-carboxanilide (XTT) method. […] After incubation, the cell viabilities were assessed by the XTT reaction solution (100 μL), and benzenesulfonic acid hydrate and N-methyl dibenzopyrazine methyl sulfate (mixed in a 50:1 ratio) were added for an additional 4 h incubation at 37 °C. The absorbance at 450 nm was then measured using a microplate autoreader (SynersyMx, Biotek). The percentage of cell viability was calculated relative to the 100% survival control after the blank read’s deduction.

A further series relates to trypsin. Kind of series: in vitro. Conditions: for remaining at 1 h, 100 μM: trypsin in phosphate buffered saline; for peptide remaining intact after trypsin incubation: trypsin 10 μg/mL, peptide 100 μM in PBS, 1 h, RP-HPLC C18 peak area relative to t0. An excerpt:
In order to overcome the proteolytic instability of peptide based drugs, the resistance of peptides to proteases is an essential prerequisite[33] because the peptides can be digested by the microbial or host protease and lose activity. Here, we tested the effect of the incorporation of an amide bond isostere on the resistance to trypsin, a serine protease known to cleave peptide bonds mainly at the C-terminal side of the amino acids lysine or arginine.
Figure 5 Resistance of peptides to trypsin digestion.
Proteolysis was measured by RP-HPLC using the following parameters, as reported.[52] Trypsin with a final concentration of 10 μg/mL was added to a solution of the peptides in phosphate buffered saline (100 μM), and the reaction was monitored over time by using reversed-phase HPLC (C18 reverse phase, Bio-Rad analytical column, 250 × 4 mm, 300 Å pore size, 7 μm particle size). The column was eluted in 40 min using a linear gradient of 10–90% acetonitrile in water containing 0.1% trifluoroacetic acid (v/v) at a flow rate of 0.6 mL/min.

A short description of another series: in vitro. Conditions: for percentage intact peptide: 20% (v/v) human plasma, 37 °C, RP-HPLC C18, 215 nm peak area; for remaining at 0.25 h, 200 μM / remaining at 0.5 h, 200 μM / remaining at 1 h, 200 μM / remaining at 2 h, 200 μM / remaining at 4 h, 200 μM: human, blood plasma (20% v/v), pH 7.4. Here is the method: The stability of the peptides was assessed by incubating them in blood plasma (20% v/v) rich in proteases thrombin and plasmin for different time periods at 37 °C.
The stability of peptides in human blood plasma was measured using a literature procedure.[13],[53] Plasma was separated from red blood cells over centrifugation, frozen, and stored at −80 °C until use. Briefly, peptides were prepared as a 1 mM solution in phosphate buffered saline (pH 7.4). 20 μL of the peptide solution was diluted in 80 μL of blood plasma (20% v/v). The solution was incubated at 37 °C for different time points, and 100 μL of a mixture containing 80% acetonitrile/10% methanol/10% water was added to stop further degradation of the peptides. A cloudy solution was produced upon the addition of the stopping solution, and the sample was cooled to 4 °C for 1 h and then centrifuged at 10 000 rpm for 10 min to remove the plasma proteins as precipitate. The supernatant (50 μL) was injected onto a reversed-phase HPLC (C18 reverse phase, Bio-Rad analytical column, 250 × 4 mm, 300 Å pore size, 7 μm particle size). The column was eluted in 40 min using a linear gradient of 10–90% acetonitrile in water containing 0.1% trifluoroacetic acid (v/v) at a flow rate of 0.6 mL/min, and the absorbance was detected at 215 nm. The percentage of remaining peptide was determined by the decrease in chromatographic peak area.

The next series has as its system Staphylococcus aureus. In kind it is cell-based. Conditions: 24 h. The procedure: as §1, §2

In turn, `CC(C)C[C@H](NC(=O)[C@H](CC(C)C)NC(=O)[C@@H](N)CCCCNC(=O)[C@H](CC(C)C)NC(=O)[C@H](CC(C)C)NC(=O)[C@H](CCCCN)NC(=O)[C@@H](N)CCCCNC(=O)[C@H](CC(C)C)NC(=O)[C@H](CC(C)C)NC(=O)[C@H](CCCCN)NC(=O)[C@@H](N)CCCCNC(=O)[C@H](CC(C)C)NC(=O)[C@H](CC(C)C)NC(=O)[C@H](CCCCN)NC(=O)[C@@H](N)CC(C)C)C(N)=O` [Amp1EP] (I: H-LKLL[εLys]KLL / II: H-KKLL[εLys]LL-NH2; amide I:C-II:1) showed an MIC against Bacillus subtilis of 12.5 µM (≈ 22.6 µg/mL). Besides, in series [1], the minimal inhibitory concentration (MIC) is 6.25 µM (≈ 11.3 µg/mL). This molecule returned an MIC in series [2] of 3.125 to 6.25 µM. For the same molecule, the “drop of cell viability” value in series [3] turned out to be 50%. In the series on trypsin, the fraction remaining at 1 h, 100 μM stood at 37%. In “in vitro” (30 min), the percentage intact peptide was roughly 85%. In “in vitro”, this molecule gave a fraction remaining at 0.25 h, 200 μM of 85%; a fraction remaining at 0.5 h, 200 μM of 85%; an amount remaining at 1 h, 200 μM of 66%; an amount remaining at 2 h, 200 μM of 60%. In “in vitro”, this molecule returned an amount remaining at 4 h, 200 μM of 37%.

Molecule `CC[C@H](C)[C@H](NC(=O)CN)C(=O)NCC(=O)N[C@@H](CCCCN)C(=O)N[C@@H](Cc1ccccc1)C(=O)N[C@@H](CC(C)C)C(=O)N[C@@H](CCCCN)C(=O)NCCCC[C@H](N)C(=O)N[C@@H](C)C(=O)N[C@@H](CCCCN)C(=O)N[C@@H](CCCCN)C(=O)N[C@@H](Cc1ccccc1)C(=O)NCC(=O)NCCCC[C@H](N)C(=O)N[C@@H](C)C(=O)N[C@@H](Cc1ccccc1)C(=O)N[C@H](C(=O)NCCCC[C@H](N)C(=O)N[C@H](C(=O)N[C@@H](CC(C)C)C(=O)N[C@@H](CCCCN)C(=O)N[C@@H](CCCCN)C(N)=O)[C@@H](C)CC)C(C)C` [MSIEP] (H-GIGKFLK[εLys]AKKFG[εLys]AFV[εLys]ILKK-NH2) displayed an MIC against Bacillus subtilis of 6.25 to 12.5 µM. Also, in series [1], the MIC stood at 12.5 µM (≈ 31 µg/mL). In series [2], the MIC was 6.25 to 12.5 µM. This molecule also returned an MIC with Staphylococcus aureus of 6.25 to 12.5 µM. Also, in series [3], the “drop of cell viability” value turned out to be 20%. The share remaining at 1 h, 100 μM in the series with trypsin was greater than 66%. In the series “in vitro”, the share remaining at 0.25 h, 200 μM is 99%; the amount remaining at 0.5 h, 200 μM amounted to 98%; the amount remaining at 1 h, 200 μM stood at 76%; the amount remaining at 2 h, 200 μM was found to be 75%. Also, in the series “in vitro”, the share remaining at 4 h, 200 μM is 75%.

The molecule GIGKFLKKAKKFGKAFVKILKK-NH2 [MSI-78] displayed an MIC against Bacillus subtilis of 1.56 µM. In addition, in series [1], the minimal inhibitory concentration (MIC) was in the range of 1.56 to 3.12 µM. Also, the MIC against Staphylococcus aureus fell in the range of 0.78 to 1.56 µM. Moreover, in the series with trypsin, the “peptide remaining intact after trypsin incubation” value was “no longer detected”. In “in vitro”, this molecule gave a fraction remaining at 0.25 h, 200 μM of 91%; a fraction remaining at 0.5 h, 200 μM of 81%; a fraction remaining at 1 h, 200 μM of 81%; a share remaining at 2 h, 200 μM of 63%. In the series “in vitro”, this molecule yielded a share remaining at 4 h, 200 μM of 55%.

LKLLKKLLKKLLKLL-NH2 [Amp1L]: the MIC against Bacillus subtilis fell in the range of 6.25 to 12.5 µM. Further, in series [1], the minimal inhibitory concentration (MIC) fell in the range of 3.12 to 6.25 µM. For the same molecule, the “peptide remaining intact after trypsin incubation” value with trypsin is on record as “no longer detected”. The percentage intact peptide in the series “in vitro” (30 min) is recorded as roughly 65%. In “in vitro” (120 min), the percentage intact peptide is roughly 61%. In addition, in “in vitro”, the share remaining at 0.25 h, 200 μM was 71%; the amount remaining at 0.5 h, 200 μM is 65%; the fraction remaining at 1 h, 200 μM turned out to be 62%; the amount remaining at 2 h, 200 μM was 61%. The molecule also gave a fraction remaining at 4 h, 200 μM in the series “in vitro” of 39%.

The term MIC denotes the least concentration at which growth counts as inhibited. For orientation: share remaining means the share of the starting amount still present when the sample was taken.
